Results reported in patent US8362072B2, “BRCA1-based breast or ovarian cancer treatment agents and methods of use” (University of Kansas, priority 2007, dated 2013).

Columns and labels:
BRCA1 protein = BRCA1 protein expression in MCF7 cells by Western blot; type: cell-based, human; conditions: 48 hours, compared to DMSO
Procedure: Compounds 29 and 30 were studied for BRCA1 and actin (e.g., housekeeping gene for normalization) protein expression. Briefly, MCF7 cells (2×10^6) in 2 ml MEM were plated in a 6 well tissue culture plate and were either left nonstimulated or treated with DMSO (vehicle control), […] Genistein, or 3 different concentrations of indicated test compound—3.65 μM, […], 32.5 μM. Following incubation at 37° C. for 48 hours, the media was removed and the cells were washed 1× with 500 μl of ice cold PBS. Another 500 μl of ice cold PBS was then added and the cells were scraped off the well and transferred to a microcentrifuge tube. To ensure all cells were removed from the well, an additional […] of ice cold PBS was added to the well and any remaining cells were combined with the initial cell harvest into the microcentrifuge tube. The cells were then pelleted by centrifugation for 5 min at 3000 rpm, 4° C. The supernate was removed and the pellet was then lysed in 150 μl of ice cold RIPA buffer+1× protease inhibitors, on ice for 30 minutes, vortexing occasionally. The cellular debris was then removed by centrifugation for 20 minutes at 11,000 rpm, 4° C. The remaining supernate, containing the extracted proteins, was then transferred to a microcentrifuge tube and quantified using the Bio-Rad DC assay. 100 μg of protein+1×SDS-PAGE sample buffer was loaded onto an 8% Tris glycine gel. The proteins were separated in a tris glycine running buffer at 125 volts for 90 minutes. The proteins were then transferred out of the gel onto PVDF in an overnight transfer with 20% methanol at 35 volts, 4° C. The PVDF membrane was then blocked with 5% milk/PBST (0.1%) for 1 hour at room temperature (RT). BRCA1 protein was detected using anti-BRCA1 (Ab-1, EMD Biosciences) at a 1:250 dilution in 3% milk/PBST, overnight at 4° C. […] To monitor equal protein loading, actin was detected using anti-actin at a 1:200,000 dilution in 5% milk/PBST for 1 hr at RT. […] Chemiluminescence was detected using the SuperSignal West Femto kit made by Pierce Biotechnology and the UVP imaging center. […]

human BRCA1 promoter = assay: BRCA1-luciferase reporter assay (Steady-Glo) in stably transfected MCF7 cells; type: cell-based; conditions: Homo sapiens, MCF7-BRCA1-luciferase cells, dilution series; for EC50: MCF7, 48 h; for EC90: 48 hours
Procedure: Hygromycin selected MCF7 cells were seeded in 384-well tissue culture plates. The first two columns of each plate were empty so as to include established positive and negative controls. Each of the remaining 352 wells contained a compound to be screened. MCF7 cells were incubated with the compounds for 48 hours. Luciferase activity was measured using the Steady Glo Luciferase Assay System (Promega). Briefly, 5×10^6 MCF7 cells were transfected with […] of purified pGL4.14 containing the human BRCA1 promoter (pGL4.14-hBRCA) with Effectene as per manufacturers protocol (Qiagen). Stable transfectants were selected with […] Hygromicin B. 1×10^5 or 2×10^5 stable transfectants were tested for luciferase activity with the Steady-Glo Luciferase Assay System (Promega).
Hygromycin selected MCF-7 cells (e.g., MCF7 clone pGL4.14-hBRCA1.3) stably transfected with the human BRCA1-luciferase reporter construct (e.g., pGL4.14-hBRCA1.3) were seeded in 384-well white tissue culture plates (Becton Dickenson, San Diego, Calif.) at 1×10^4 cells/well. These cells were then stimulated with indicated concentrations of genistein (Sigma-Aldrich, St. Louis, Mo.) for 0, 6, 9, 24 and 48 hours. Luciferase activity was measured using the Steady Glo Luciferase Assay System (Promega). The data shown in FIG. 3A is representative of 3 individual experiments.
Two different chemical libraries were screened for the ability to enhance BRCA1 gene expression. To examine the effects of each compound on BRCA1 expression, the human BRCA1 promoter was cloned and inserted upstream of the firefly luciferase gene in the plasmid pGL4.14 (BRCA1-Luc) (Promega), as described above. The ER positive human breast cancer cell line, MCF7, was transfected and stable transfectants were selected with hygromycin.
Briefly, compounds were plated in a 384 well plate in a total volume of 20 μl. A ten point dilution series was used at concentrations—100 µM, 10 μM, 1 μM, 100 nM, 10 nM, 1 nM, 0.1 nM, 0.01 nM, 0.0001 nM, 0 (DMSO vehicle only). A second dilution series of 100 μM, 32.5 μM, […], 3.6 μM, 1.2 μM, 400 nM, 132.2 nM, 45 nM, 14.8 nM, 5 nM, and 1.65 nM was also used. MCF7-BRCA1-luciferase cells were added to the compounds at a concentration of 1×10^4 cells/well in a volume of 25 μl. The 384 well plates, containing the compounds+cells, were then incubated at 37° C. for 48 hours. After 48 hours, luciferase activity was measured with the Steady-Glo® Luciferase Assay System (Promega, Madison, Wis.).

BRCA1 RNA = BRCA1 RNA expression in MCF7 cells by qRT-PCR (TaqMan, 18S normalised); type: cell-based, human; conditions: 48 hours, 3.65-32.5 μM, compared to DMSO and genistein
Procedure: Compounds 29 and 30 were studied for BRCA1 and 18S (e.g., housekeeping gene for normalization) RNA expression. Briefly, MCF7 cells (2×10^6) in 2 ml MEM were plated in a 6 well tissue culture plate and were either left nonstimulated or treated with DMSO (vehicle control), 10 μM Genistein, or 3 different concentrations of indicated test compound—3.65 μM, 10.8 μM, 32.5 μM. Following incubation at 37° C. for 48 hours, the media was removed and RNA was extracted per manufacturer's protocol using the RNeasy Plus RNA extraction kit made by Qiagen. Complementary DNA (cDNA) was generated per manufacturer's protocol from 1000 ng extracted RNA in a 60 μl volume using the High Capacity cDNA kit made by Applied Biosystems. Gene expression of BRCA1 and 18S was detected with the TaqMan Gene Expression assay kit made by Applied Biosystems. […] The […] reaction was run on either the ABI real time system 7500 or 7000 (see, Analysis of Relative Gene Expression Data Using Real-Time Quantitative PCR and the 2^−ΔΔCT Method. Kenneth J. Livak^a and Thomas D. Schmittgen^b, 1. ^a Applied Biosystems, Foster City, Calif., 94404 ^b Department of Pharmaceutical Sciences, College of Pharmacy, Washington State University, Pullman, Wash., 99164-6534. Methods, Volume 25, Issue 4, December 2001, Pages 402-408).

EC50 (human BRCA1 promoter) | EC90 (human BRCA1 promoter) | SMILES | BRCA1 protein expression (BRCA1 protein) | BRCA1 RNA expression (BRCA1 RNA)
8.49 µM | 91.8 µM | Cc1ccc(OCC(=O)O/N=C(\N)c2ccccn2)c(C)c1 [Cmpd 29] | increase endogenous BRCA1 | increase BRCA1 RNA expression
4.13 µM | 55.4 µM | CCc1ccc(OCC(=O)O/N=C(\N)c2ccncc2)c(C)c1 [Cmpd 30] | increase endogenous BRCA1 | increase BRCA1 RNA expression
